Square brackets hold non-standard residues; d marks the D form. Peptide text beside a SMILES is read from it. * marks the point of attachment. Sta = CC(C)C[C@H](N)[C@@H](O)CC(=O)O; Isovaleryl = CC(C)CC(=O)*
How the values were obtained:
plasmepsin II = plasmepsin II (Plasmodium falciparum, UniProt P46925); assay: FRET assay for plasmepsin II; type: biochemical; conditions: pH 5, 37° C., 40 min, substrate 1 μM
Description: The fluorescence resonance energy transfer (FRET) assay for HIV, plasmepsin II, human cathepsin D and human cathepsin E.
The assay conditions were selected according, to reports in the literature. The FRET assay was performed in white polysorp plates (Fluoronunc, cat n° 437842 A). The assay buffer consisted of 50 mM Na acetate pH 5, 12,5% glycerol, 0.1% BSA+392 mM NaCl (for HIV-protease). The incubates per well were composed of:
10 μl inhibitor (in DMSO)
10 μl of the corresponding substrate in DMSO (see table A) to a final concentration of 1 μM
20 μl of enzyme to a final amount of x ng per assay tube (x=10 ng/assay tube plasmepsin II, x=100 ng/assay tube HIV-protease, x=10 ng/assay tube human cathepsin E and x=20 ng/assay tube human cathepsin D)
The reactions were initiated by addition of the enzyme. The assay was incubated at 37° C. for 30 min (for human cathepsin E), 40 min (for plasmepsin II and HIV-protease) or 120 min (for human cathepsin D). The reactions were stopped by adding 10% (v/v) of a 1 M solution of Tris-base. Product-accumulation was monitored by measuring the fluorescence at 460 nm.
Auto-fluorescence of all the test substances is determined in assay buffer in the absence of substrate and enzyme and this value was subtracted from the final signal.

P. falciparum = conditions: cited from earlier work

Sequence of plasmepsin II (P46925 125-453): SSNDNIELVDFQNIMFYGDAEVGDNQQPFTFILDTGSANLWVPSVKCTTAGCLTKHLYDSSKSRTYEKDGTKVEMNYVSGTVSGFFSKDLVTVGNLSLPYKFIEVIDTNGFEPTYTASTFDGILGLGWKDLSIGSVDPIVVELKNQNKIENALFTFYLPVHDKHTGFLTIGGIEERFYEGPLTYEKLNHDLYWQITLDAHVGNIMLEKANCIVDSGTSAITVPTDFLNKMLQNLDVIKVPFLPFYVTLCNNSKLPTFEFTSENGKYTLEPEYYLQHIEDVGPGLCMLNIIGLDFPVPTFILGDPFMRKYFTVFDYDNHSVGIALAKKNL

| IC50 (plasmepsin II) | SMILES | growth of P. falciparum in red blood cells in vitro (P. falciparum) |
| --- | --- | --- |
| 115 nM | CCCCCc1ccc(C(=O)N(CCN(CCCC)CCCC)Cc2ccc(OCc3ccccc3)cc2)cc1 [Example 1] | – |
| 846 nM | CCCCCc1ccc(CN(CCN(CCCC)CCCC)Cc2ccc(OCc3ccccc3)cc2)cc1 [Example 20] | – |
| 469 nM | CCCCCc1ccc(C(=O)N(CCN(CCCC)CCCC)Cc2ccc(Oc3ccccc3)cc2)cc1 [Example 21] | – |
| 858 nM | CCCCCc1ccc(C(=O)N(CCN(CCCC)CCCC)Cc2ccc(OCc3ccccc3)c(OCc3ccccc3)c2)cc1 [Example 22] | – |
| 252 nM | CCCCCc1ccc(C(=O)N(CCN(CCCC)CCCC)Cc2ccc(-c3ccccc3)cc2)cc1 [Example 23] | – |
| 596 nM | CCCCCc1ccc(C(=O)N(CCN(CCCC)CCCC)Cc2ccc(C(F)(F)F)cc2)cc1 [Example 25] | – |
| 325 nM | CCCCCc1ccc(C(=O)N(CCN(CCCC)CCCC)Cc2ccc(OCCCC)cc2)cc1 [Example 38] | – |
| 691 nM | CCCCCc1ccc(C(=O)N(CCCN(CCCC)CCCC)Cc2ccc(OCc3ccccc3)cc2)cc1 [Example 51] | – |
| 834 nM | CCCCCc1ccc(C(=O)N(CCCN(CCCC)CCCC)Cc2ccc(-c3ccccc3)cc2)cc1 [Example 52] | – |
| 312 nM | CCCCCc1ccc(C(=O)N(CCN(CCCC)CCCC)Cc2ccc(-c3ccccc3F)cc2)cc1 [Example 54] | – |
| 659 nM | CCCCCc1ccc(C(=O)N(CCN(CCCC)CCCC)Cc2ccc(-c3ccccc3Cl)cc2)cc1 [Example 56] | – |
| 754 nM | CCCCCc1ccc(C(=O)N(CCN(CCCC)CCCC)Cc2ccc(-c3cccc(OC(F)(F)F)c3)cc2)cc1 [Example 58] | – |
| 380 nM | CCCCCc1ccc(C(=O)N(CCN(CCCC)CCCC)Cc2ccc(-c3ccccn3)cc2)cc1 [Example 59] | – |
| 198 nM | CCCCCc1ccc(C(=O)N(CCN(CCCC)CCCC)Cc2ccc(-c3ccc(CC(=O)OC)cc3)cc2)cc1 [Example 60] | – |
| 57 nM | CCCCCc1ccc(C(=O)N(CCN(CCCC)CCCC)Cc2ccc(-c3ccc4c(c3)OCO4)cc2)cc1 [Example 61] | – |
| 714 nM | CCCCCc1ccc(CN(CCN(CCCC)CCCC)Cc2ccc(-c3ccc(C#N)cc3)cc2)cc1 [Example 68] | – |
| 8230 nM | CCCCCc1ccc(C(=O)N(CCN(CCO)CCO)Cc2ccc(OCC)cc2)cc1 [Example 69] | – |
| – | CC(C)CC(=O)N[C@H](C(=O)N[C@H](C(=O)N[C@@H](CC(C)C)[C@@H](O)CC(=O)N[C@@H](C)C(=O)N[C@@H](CC(C)C)[C@@H](O)CC(=O)O)C(C)C)C(C)C [Pepstatin] (Isovaleryl-VV[Sta]A[Sta]-OH) | inhibits the growth |

| SMILES | IC50 (plasmepsin II) | growth of P. falciparum in red blood cells in vitro (P. falciparum) |
| --- | --- | --- |
| CCCCCc1ccc(C(=O)N(CCN(CCCC)CCCC)Cc2ccc(-c3ccc(OCCO)cc3)cc2)cc1 [Example 53] | 125 nM | – |
| CCCCCc1ccc(C(=O)N(CCN(CCCC)CCCC)Cc2ccc(-c3cncnc3)cc2)cc1 [Example 57] | 351 nM | – |

Reference: patent US20040067927A1, “Substituted alkyldiamines” (priority 2003, published 2004)
